System: transplanted tumor of human colon cancer HT-29 cells
Assay: Human colon cancer in nude mice model
Settings: HT-29 nude mice; 30 mg/kg i.g. 30 d
Method: Then cell concentration was adjusted to 1×10^7/ml with matrigel, then each nude mouse was inoculated subcutaneously with 0.2 ml of cells at its right armpit and recorded as the first day of inoculation. […] Each group was continuously administered intragastrically for 30 days with a dose of 20 ml/kg. The mice were sacrificed the next day after drug withdrawal and the indicators were tested. The long diameter and short diameter of the tumor, and the body weight of each mouse were recorded every 3 days from drug administration to nude mouse sacrifice.
The body weight of the nude mice and the long diameter (a) and short diameter (b) of the transplanted tumor were measured every 3 days, and the tumor volume (v), relative tumor volume (RTV) and relative tumor proliferation rate (T/C) are calculated respectively according to the following formulas, wherein V=a×b^2/2; RTV=V/V0 (V0 is the tumor volume before administration, V is the tumor volume before sacrifice), and T/C (%)=treatment group RTV/model control group RTV×100%.
Each mouse was weighed and sacrificed. After the tumor was completely stripped off from the body of the mouse, the non-tumor tissues such as blood stains and fat were removed to weigh the tumor and calculate the tumor growth inhibition rate. The average tumor weight of each group of mice is used as an indicator of efficacy. Tumor growth inhibition rate (%)=(1−the average tumor weight of the treatment group/the average tumor weight of the model group)×100%.

O=P1(N(CCCl)CCCl)NCCCO1 (centres unmarked) [Cyclophosphamide]
Body Weight (g)(d1): 23.76 ± 01.11 g
Body Weight (g)(d30): 21.52 ± 01.32 g
Inhibition Rate (%): 67.38%
Relative Tumor Proliferation Rate(T/C): 25.71%
Relative Tumor Volume (RTV): 5.21 ± 0.70
Tumor Volume (mm3) (d1): 156.61 ± 5.92 mm3
Tumor Volume (mm3) (d30): 816.17 ± 21.03 mm3
Tumor Weight: 0.40 ± 0.03 g
